molecular target: Serine/threonine-protein kinase 33 (Homo sapiens, UniProt Q9BYT3); assay: STK33 kinase inhibitors, dose response, biochemical, luminescence, cell-free, retest (AID 2821)
Sequence (Q9BYT3 whole entry): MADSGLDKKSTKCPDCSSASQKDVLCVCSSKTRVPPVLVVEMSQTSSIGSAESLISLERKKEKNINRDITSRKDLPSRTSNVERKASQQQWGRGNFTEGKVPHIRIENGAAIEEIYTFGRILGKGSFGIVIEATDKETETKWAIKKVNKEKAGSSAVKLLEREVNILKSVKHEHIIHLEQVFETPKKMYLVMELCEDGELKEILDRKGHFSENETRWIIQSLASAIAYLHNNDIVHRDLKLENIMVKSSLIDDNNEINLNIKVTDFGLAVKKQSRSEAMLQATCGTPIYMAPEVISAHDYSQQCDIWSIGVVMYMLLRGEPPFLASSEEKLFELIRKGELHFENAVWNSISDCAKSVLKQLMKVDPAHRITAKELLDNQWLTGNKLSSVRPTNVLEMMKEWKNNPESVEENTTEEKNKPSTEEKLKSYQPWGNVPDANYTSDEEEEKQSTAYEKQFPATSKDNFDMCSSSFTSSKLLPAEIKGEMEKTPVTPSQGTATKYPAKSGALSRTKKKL

Compound	EC50 [µM]
COc1cc(C=Nn2c(-c3ccccc3)n[nH]c2=S)ccc1O [(4E)-2-methoxy-4-[[(3-phenyl-5-sulfanylidene-1H-1,2,4-triazol-4-yl)amino]methylidene]cyclohexa-2,5-dien-1-one]	7.09
O=C(Nc1ccccc1C(=O)O)c1cccc(C(=O)Nc2ccccc2C(=O)O)c1 [The compound has not trivial name.]	59.6
CCSc1nc(N2CCOCC2)c2c(c1C#N)CCCC2 [3-(ethylthio)-1-(4-morpholinyl)-5,6,7,8-tetrahydroisoquinoline-4-carbonitrile]	8.86
COc1cc(C)c2c(c1C=O)Oc1c(c(C)c(O)c3c1C(O)OC3=O)OC2=O (stereo not given) [1,4-Dihydroxy-10-methoxy-5,8-dimethyl-3,7-dioxo-1,3-dihydro-7H-benzo[e]furo[3',4':3,4]benzo[b][1,4]dioxepine-11-carbaldehyde]	32
CC[C@H](CO)Nc1nc(Nc2cccc(Cl)c2)c2ncn(C(C)C)c2n1 [(R)-2-(6-(3-chlorophenylamino)-9-isopropyl-9H-purin-2-ylamino)butan-1-ol]	2.49
C[C@H]1CCCC(=O)CCCC=Cc2cc(O)cc(O)c2C(=O)O1 [(11S)-11-methyl-15,17-bis(oxidanyl)-12-oxabicyclo[12.4.0]octadeca-1(18),2,14,16-tetraene-7,13-dione]	44.6
CCc1ncc(C=C2C(=O)Nc3ccccc32)[nH]1 [3-[(Z)-(2-ethyl-1H-imidazol-5-yl)methylidene]-1H-indol-2-one]	5.25
CCCCCCCCCCOC(=O)Cn1c(COc2ccc(Cl)cc2)[n+](C)c2ccccc21 [decyl 2-[2-[(4-chloranylphenoxy)methyl]-3-methyl-benzimidazol-3-ium-1-yl]ethanoate;chloride]	> 120
O=C1c2ccccc2C(=O)C1c1ccccn1	5.49
O=c1c(-c2c(O)cc(O)c3c2O[C@H](c2ccc(O)cc2)CC3)c(-c2ccc(O)cc2)oc2cc(O)cc(O)c12 [3-[(2S)-5,7-dihydroxy-2-(4-hydroxyphenyl)-3,4-dihydro-2H-1-benzopyran-8-yl]-5,7-dihydroxy-2-(4-hydroxyphenyl)-1-benzopyran-4-one]	> 120
N#Cc1c2ccc(O)cc2n2ccccc12 [3-hydroxypyrido[1,2-a]indole-10-carbonitrile]	4.59
C/C=C/Cn1c(SCc2ccc(Cl)cc2)nc2c1c(=O)[nH]c(=O)n2C [7-[(E)-but-2-enyl]-8-[(4-chlorophenyl)methylsulfanyl]-3-methylpurine-2,6-dione]	> 120
O=C(O)Cc1ccc(N=Cc2c(O)ccc3ccccc23)cc1 [(4-{[(2-hydroxy-1-naphthyl)methylene]amino}phenyl)acetic acid]	10.7
CC(C)n1cnc2c(Nc3cccc(Cl)c3)nc(NCCCO)nc21	1.84
Oc1ccc(Nc2nc(-c3ccccc3O)nc3ccccc23)cc1	2.43
COC(=O)c1ccccc1NC(=O)N1CCN(C/C=C/c2ccccc2)CC1	8.73
CCOc1ccc(-c2cc(CCCC(=O)NCCCOC)no2)cc1 [4-[5-(4-ethoxyphenyl)-1,2-oxazol-3-yl]-N-(3-methoxypropyl)butanamide]	> 120
CC(N=Nc1ccnc2cc(Cl)ccc12)c1ccc(O)cc1 (stereo not given) [4-[1-[(7-chloro-4-quinolinyl)hydrazo]ethylidene]-1-cyclohexa-2,5-dienone]	22.9
O=c1c(O)c(-c2cc(O)c(O)c(O)c2)oc2cc(O)cc(O)c12	18
CN1CCN(c2ccc(NC(=O)c3ccc(-c4cccc([N+](=O)[O-])c4)o3)cc2)CC1 [N-[4-(4-methylpiperazin-1-yl)phenyl]-5-(3-nitrophenyl)furan-2-carboxamide]	20.2
CCOc1ccccc1C(=O)Nc1cc(Cl)ccc1O [N-(5-chloranyl-2-oxidanyl-phenyl)-2-ethoxy-benzamide]	6.82
COc1ccc(C(=O)NNC(=O)c2ccccn2)cc1	21.8
O=c1c2ccccc2oc2ccc(NCCCN3CCOCC3)cc12	3.82

Compound	EC50 [µM]
COc1ccc(N=CC2C(=O)Nc3ccccc32)cc1OC (stereo not given)	5.22
COc1cc2c(ccc3cc(OC)c(OC)c(O)c32)cc1O [3,6,7-trimethoxyphenanthrene-2,5-diol]	27.4
COc1ccc2c(c1)C(=Cc1cnc[nH]1)C(=O)N2	7.73
Nc1c(C(=O)O)ccc2c1C(=O)c1ccccc1C2=O	22.2
COc1cc(C=CC(=O)CC(=O)C=Cc2ccc(O)c(OC)c2)ccc1O	0.71
O=C(CCc1ccc(O)cc1)c1c(O)cc(O)cc1O [3-(4-hydroxyphenyl)-1-(2,4,6-trihydroxyphenyl)propan-1-one]	21.4
COc1cc(CN=Nc2ccc(C(F)(F)F)cn2)ccc1O [(4E)-2-methoxy-4-[[[5-(trifluoromethyl)-2-pyridinyl]hydrazo]methylidene]-1-cyclohexa-2,5-dienone]	19
Cc1occc1C(=O)NN=Cc1ccc(N(C)C)cc1 [N-[[4-(dimethylamino)phenyl]methylideneamino]-2-methylfuran-3-carboxamide]	> 120
NC(=S)c1cn(C2OC(CO)C(O)C2O)c2ncnc(N)c12 (stereo not given) [4-amino-7-[3,4-dihydroxy-5-(hydroxymethyl)oxolan-2-yl]pyrrolo[2,3-d]pyrimidine-5-carbothioamide]	3.48
Nc1c(O)ccc2c1C(=O)c1ccccc1C2=O [1-amino-2-hydroxy-9,10-anthraquinone]	34.7
Cc1nn(C)cc1/C=C/C(=O)c1ccc(O)cc1	29
O=C(CSc1nc(N2CCCCC2)nc(N2CCCCC2)n1)c1ccccc1 [2-[[4,6-di(piperidin-1-yl)-1,3,5-triazin-2-yl]sulfanyl]-1-phenyl-ethanone]	> 120
NS(=O)(=O)c1ccc2c(c1)C(N=O)c1cc(S(N)(=O)=O)ccc1-2	4.91
COc1ccc(-c2oc3ncnc(NCCCN(C)C)c3c2-c2ccc(OC)cc2)cc1 [N-[5,6-bis(4-methoxyphenyl)furo[2,3-d]pyrimidin-4-yl]-N',N'-dimethyl-propane-1,3-diamine]	33.6
Oc1ccc(CN=Nc2ccnc3cc(Cl)ccc23)cc1O [(4Z)-4-[[2-(7-chloroquinolin-4-yl)hydrazinyl]methylidene]-2-hydroxycyclohexa-2,5-dien-1-one]	3.05
COc1ccc(NC(=O)c2cc([N+](=O)[O-])ccc2O)cc1	18.6
CCn1c2ccc(C)cc2c2nc3cc(C(=O)O)ccc3nc21 [6-ethyl-9-methylindolo[2,3-b]quinoxaline-2-carboxylic acid]	17.9
Oc1ccc(CN=Nc2ccc(C(F)(F)F)cn2)cc1 [4-[[2-[5-(trifluoromethyl)pyridin-2-yl]hydrazinyl]methylidene]cyclohexa-2,5-dien-1-one]	14.1
O=C(c1ccc2c3n(nc2c1)-c1ccccc1CO3)N1CCCCC1 [5H-indazolo[2,3-a][3,1]benzoxazin-9-yl(piperidin-1-yl)methanone]	> 120
CCN1CCN(c2cc(C)c3cc(NC(=O)c4ccc(Br)o4)ccc3n2)CC1 [5-bromo-N-[2-(4-ethylpiperazin-1-yl)-4-methylquinolin-6-yl]furan-2-carboxamide]	18.4
Nc1cc(C(=O)O)c(N)c2c1C(=O)c1ccccc1C2=O [1,4-bis(azanyl)-9,10-bis(oxidanylidene)anthracene-2-carboxylic acid]	3.55
O=C1NCCCc2c1oc1ccc(O)cc21 [7-hydroxy-2,3,4,5-tetrahydro-[1]benzofuro[2,3-c]azepin-1-one]	3.71
COc1cc(C=Nn2c(S)nnc2-c2[nH]nc3c2CCC3)ccc1O [(4E)-2-methoxy-4-[[[5-sulfanylidene-3-(1,4,5,6-tetrahydrocyclopenta[c]pyrazol-3-yl)-1H-1,2,4-triazol-4-yl]amino]methylidene]cyclohexa-2,5-dien-1-one]	10.4

The next lines start with the values.

EC50 [µM]	Compound
8.03	O=C1c2ccccc2-c2onc3ccc(NCCCn4ccnc4)c1c23 [SMR000044769]
32.3	O=C(O)c1cc(N=NCc2c(O)ccc3ccccc23)ccc1Cl [MLS001173801]
22.5	Cc1cccc(-c2nc3ccccc3c3nncn23)c1 [SMR000106108]
9.54	CCC(C(=O)Nc1ccc2[nH]ncc2c1)c1ccccc1 (stereo not given) [MLS001001015]
42.8	CN1CCN(c2nc(-c3ccccc3O)nc3ccccc23)CC1 [SMR000539302]
> 120	S=C(Nc1cccc(Cl)c1)Nc1ccc2cn[nH]c2c1 [SMR000261299]
27.6	COc1cc(C=Nn2c(-c3cc(C)[nH]n3)n[nH]c2=S)ccc1O [MLS000778764]
> 120	Cc1nc[nH]c1C(=O)NN=Cc1c(Cl)cccc1Cl [MLS001182271]
19.5	S=C(Nc1ccccc1)Nc1ccc2c[nH]nc2c1 [MLS000516600]
> 120	N=c1c2c(-c3ccccc3)c(-c3ccccc3)oc2ncn1Cc1ccco1 [SMR000176070]
30.8	c1coc(C2Nc3ccccc3-c3nc4ccccc4n32)c1 (stereo not given) [MLS000055458]
> 120	CCCCC(CC)CNC(=N)NC(=N)NCCCCCCNC(=N)NC(=N)NCC(CC)CCCC (stereo not given) [MLS002153995]
> 120	CCCCCCCCCCC[N+](C)(C)CC/C=C1/c2ccccc2Sc2ccc(Cl)cc21 [MLS001165405]
> 120	CCOC(=O)Cc1nnc(NC(=O)COc2ccc(C)cc2)s1 [MLS000082525]
25	CC(C)(C)c1[nH]nc2c1C(=O)c1ccccc1-2 [SMR000528110]
> 120	O=C(Nc1cc(C(=O)Nc2ccccc2C(=O)O)cc(C(=O)Nc2ccccc2C(=O)O)c1)c1ccccc1 [SMR000658665]
> 120	CN1CCN(C=NC2=NN(c3cccc(C(F)(F)F)c3)CC2)CC1 [MLS000418536]
37.3	Cc1cccc(C(=N)NOC(=O)c2ccc3c(c2)OCO3)c1 [MLS000579340]
> 120	O=C1C=CC(O)(c2cc(=O)c3c(O)cc(O)cc3o2)C=C1 [SMR000156275]
> 120	CC(C)N=C(S)Nc1ccc2c[nH]nc2c1 [SMR000261130]
3.46	O=S(=O)(O)c1cccc(N=Nc2c(O)ccc3ccccc23)c1 [SMR000273743]
0.769	CCCn1c(NC(=O)c2cccc(S(=O)(=O)N3CCCC3)c2)nc2ccccc21 [MLS000057540]
26.1	COc1ccc(/C=C/c2nc3ccccc3n2C)cc1 [MLS000719304]
> 120	O=C1NC2c3ccccc3C(=O)N2c2c1cnn2-c1ccccc1 (stereo not given) [MLS000028140]

Reference: BindingDB's records for doi:10.7270/Q2B27SRF (Broad Institute, 2010)
